Measurements taken from the NIST ThermoML archive (doi:10.1007/s10765-008-0535-5).

Experiment: wn = mass fraction of the nth substance listed
Conditions: Liquid, Pycnometric method, w2 = 0.5111

FC(F)C(F)(F)F [pentafluoroethane] + FCF
Conditions	mass density [kg/m3]
268.15 K, 3423 kPa	1190.3
269.15 K, 4259 kPa	1190.1
270.15 K, 5065 kPa	1189.9
270.15 K, 5095 kPa	1189.9
270.15 K, 5157 kPa	1190.1
271.15 K, 5903 kPa	1189.7
271.15 K, 5931 kPa	1189.7
271.15 K, 5992 kPa	1189.9
272.15 K, 6740 kPa	1189.6
272.15 K, 6767 kPa	1189.5
272.15 K, 6828 kPa	1189.7
273.15 K, 7576 kPa	1189.4
273.15 K, 7602 kPa	1189.3
273.15 K, 7662 kPa	1189.5
274.15 K, 8411 kPa	1189.2
274.15 K, 8437 kPa	1189.2
274.15 K, 8496 kPa	1189.3
275.15 K, 9245 kPa	1189
275.15 K, 9272 kPa	1189
275.15 K, 9328 kPa	1189.2
276.15 K, 10082 kPa	1188.8
276.15 K, 10107 kPa	1188.8
276.15 K, 10161 kPa	1189
277.15 K, 10917 kPa	1188.6
277.15 K, 10942 kPa	1188.6
277.15 K, 10993 kPa	1188.8
278.15 K, 11753 kPa	1188.4
278.15 K, 11776 kPa	1188.4
278.15 K, 11824 kPa	1188.6
279.15 K, 12587 kPa	1188.2
279.15 K, 12611 kPa	1188.2
279.15 K, 12657 kPa	1188.4
280.15 K, 13423 kPa	1188.1
280.15 K, 13444 kPa	1188.1
280.15 K, 13488 kPa	1188.2
281.15 K, 14258 kPa	1187.9
281.15 K, 14277 kPa	1187.9
281.15 K, 14319 kPa	1188.1
282.15 K, 15091 kPa	1187.7
282.15 K, 15110 kPa	1187.7
282.15 K, 15148 kPa	1187.9
283.15 K, 15926 kPa	1187.5
283.15 K, 15943 kPa	1187.6
283.15 K, 15978 kPa	1187.7
284.15 K, 16759 kPa	1187.4
284.15 K, 16775 kPa	1187.4
284.15 K, 16808 kPa	1187.6
285.15 K, 17592 kPa	1187.2
285.15 K, 17606 kPa	1187.2
285.15 K, 17637 kPa	1187.4
286.15 K, 18423 kPa	1187.1
286.15 K, 18437 kPa	1187.1
286.15 K, 18467 kPa	1187.2
287.15 K, 19253 kPa	1186.9
287.15 K, 19268 kPa	1186.9
287.15 K, 19297 kPa	1187.1
288.15 K, 20083 kPa	1186.7
288.15 K, 20097 kPa	1186.8
288.15 K, 20124 kPa	1186.9
289.15 K, 20914 kPa	1186.6
289.15 K, 20926 kPa	1186.6
289.15 K, 20951 kPa	1186.8
290.15 K, 21743 kPa	1186.4
290.15 K, 21755 kPa	1186.5
290.15 K, 21778 kPa	1186.6
291.15 K, 22571 kPa	1186.3
291.15 K, 22583 kPa	1186.3
291.15 K, 22607 kPa	1186.5
292.15 K, 23400 kPa	1186.2
292.15 K, 23410 kPa	1186.2
292.15 K, 23433 kPa	1186.4
293.15 K, 24226 kPa	1186
293.15 K, 24236 kPa	1186
293.15 K, 24257 kPa	1186.2
294.15 K, 25053 kPa	1185.9
294.15 K, 25062 kPa	1185.9
294.15 K, 25082 kPa	1186.1
295.15 K, 25878 kPa	1185.7
295.15 K, 25887 kPa	1185.7
295.15 K, 25903 kPa	1185.9
296.15 K, 5585 kPa	1097.9
296.15 K, 5620 kPa	1097.9
296.15 K, 5667 kPa	1097.9
296.15 K, 26704 kPa	1185.6
296.15 K, 26711 kPa	1185.6
296.15 K, 26725 kPa	1185.8
297.15 K, 6213 kPa	1097.7
297.15 K, 6246 kPa	1097.7
297.15 K, 6292 kPa	1097.7
297.15 K, 27528 kPa	1185.5
297.15 K, 27534 kPa	1185.5
297.15 K, 27546 kPa	1185.6
298.15 K, 6841 kPa	1097.5
298.15 K, 6872 kPa	1097.5
298.15 K, 6917 kPa	1097.6
298.15 K, 28352 kPa	1185.4
298.15 K, 28357 kPa	1185.3
298.15 K, 28366 kPa	1185.5
299.15 K, 7469 kPa	1097.4
299.15 K, 7499 kPa	1097.4
299.15 K, 7541 kPa	1097.4
299.15 K, 29176 kPa	1185.2
299.15 K, 29179 kPa	1185.2
299.15 K, 29186 kPa	1185.4
300.15 K, 8097 kPa	1097.2
300.15 K, 8124 kPa	1097.2
300.15 K, 8166 kPa	1097.2
300.15 K, 29998 kPa	1185.1
300.15 K, 29999 kPa	1185.1
300.15 K, 30003 kPa	1185.2
301.15 K, 8725 kPa	1097.1
301.15 K, 8750 kPa	1097.1
301.15 K, 8791 kPa	1097.1
302.15 K, 9353 kPa	1096.9
302.15 K, 9377 kPa	1096.9
302.15 K, 9417 kPa	1096.9
303.15 K, 9980 kPa	1096.8
303.15 K, 10003 kPa	1096.8
303.15 K, 10042 kPa	1096.8
304.15 K, 10607 kPa	1096.6
304.15 K, 10629 kPa	1096.6
304.15 K, 10667 kPa	1096.7
305.15 K, 11234 kPa	1096.5
305.15 K, 11256 kPa	1096.5
305.15 K, 11292 kPa	1096.5
306.15 K, 11861 kPa	1096.4
306.15 K, 11881 kPa	1096.4
306.15 K, 11917 kPa	1096.4
307.15 K, 12487 kPa	1096.2
307.15 K, 12507 kPa	1096.2
307.15 K, 12541 kPa	1096.2
308.15 K, 13114 kPa	1096.1
308.15 K, 13133 kPa	1096.1
308.15 K, 13165 kPa	1096.1
309.15 K, 13740 kPa	1095.9
309.15 K, 13758 kPa	1095.9
309.15 K, 13790 kPa	1095.9
310.15 K, 14367 kPa	1095.8
310.15 K, 14384 kPa	1095.8
310.15 K, 14414 kPa	1095.8
311.15 K, 14992 kPa	1095.6
311.15 K, 15009 kPa	1095.7
311.15 K, 15038 kPa	1095.7
312.15 K, 15618 kPa	1095.5
312.15 K, 15634 kPa	1095.5
312.15 K, 15662 kPa	1095.5
313.15 K, 16243 kPa	1095.4
313.15 K, 16259 kPa	1095.4
313.15 K, 16286 kPa	1095.4
314.15 K, 16869 kPa	1095.2
314.15 K, 16883 kPa	1095.2
314.15 K, 16910 kPa	1095.3
315.15 K, 17493 kPa	1095.1
315.15 K, 17507 kPa	1095.1
315.15 K, 17534 kPa	1095.1
316.15 K, 18118 kPa	1095
316.15 K, 18131 kPa	1095
316.15 K, 18158 kPa	1095
317.15 K, 18743 kPa	1094.9
317.15 K, 18755 kPa	1094.9
317.15 K, 18781 kPa	1094.9
318.15 K, 19367 kPa	1094.7
318.15 K, 19379 kPa	1094.7
318.15 K, 19404 kPa	1094.8
319.15 K, 19990 kPa	1094.6
319.15 K, 20003 kPa	1094.6
319.15 K, 20027 kPa	1094.6
320.15 K, 20613 kPa	1094.5
320.15 K, 20627 kPa	1094.5
320.15 K, 20649 kPa	1094.5
321.15 K, 21236 kPa	1094.4
321.15 K, 21250 kPa	1094.4
321.15 K, 21272 kPa	1094.4
322.15 K, 21858 kPa	1094.2
322.15 K, 21873 kPa	1094.3
322.15 K, 21894 kPa	1094.3
323.15 K, 22480 kPa	1094.1
323.15 K, 22495 kPa	1094.1
323.15 K, 22516 kPa	1094.2
324.15 K, 23103 kPa	1094
324.15 K, 23117 kPa	1094
324.15 K, 23137 kPa	1094
325.15 K, 23725 kPa	1093.9
325.15 K, 23738 kPa	1093.9
325.15 K, 23758 kPa	1093.9
326.15 K, 24347 kPa	1093.8
326.15 K, 24361 kPa	1093.8
326.15 K, 24379 kPa	1093.8
327.15 K, 24970 kPa	1093.7
327.15 K, 24981 kPa	1093.7
327.15 K, 25000 kPa	1093.7
328.15 K, 25590 kPa	1093.6
328.15 K, 25601 kPa	1093.6
328.15 K, 25620 kPa	1093.6
